# Legend:
# Type in all cases: functional
# NUGC-3 [1] = assay: Antiproliferative activity against human NUGC3 cells at 0.1 uM by SRB assay
# PC-3 [2] = assay: Antiproliferative activity against human PC3 cells at 3 uM by SRB assay
# NCI-H23 [3] = assay: Antiproliferative activity against human NCI-H23 cells at 0.3 uM by SRB assay
# HCT-15 [4] = assay: Antiproliferative activity against human HCT15 cells by SRB assay
# MDA-MB-231 [5] = assay: Antiproliferative activity against human MDA-MB-231 cells at 0.1 uM by SRB assay
# HCT-15 [6] = assay: Antiproliferative activity against human HCT15 cells at 0.1 uM by SRB assay
# MDA-MB-231 [7] = assay: Antiproliferative activity against human MDA-MB-231 cells by SRB assay
# NCI-H23 [8] = assay: Antiproliferative activity against human NCI-H23 cells at 10 uM by SRB assay
# HCT-15 [9] = assay: Antiproliferative activity against human HCT15 cells at 3 uM by SRB assay
# MDA-MB-231 [10] = assay: Antiproliferative activity against human MDA-MB-231 cells at 3 uM by SRB assay
# MDA-MB-231 [11] = assay: Antiproliferative activity against human MDA-MB-231 cells at 1 uM by SRB assay
# HCT-15 [12] = assay: Antiproliferative activity against human HCT15 cells at 10 uM by SRB assay
# ACHN [13] = assay: Antiproliferative activity against human ACHN cells at 0.1 uM by SRB assay
# NCI-H23 [14] = assay: Antiproliferative activity against human NCI-H23 cells at 1 uM by SRB assay
# PC-3 [15] = assay: Antiproliferative activity against human PC3 cells at 0.3 uM by SRB assay
# ACHN [16] = assay: Antiproliferative activity against human ACHN cells at 0.3 uM by SRB assay
# ACHN [17] = assay: Antiproliferative activity against human ACHN cells by SRB assay
# HCT-15 [18] = assay: Antiproliferative activity against human HCT15 cells at 1 uM by SRB assay
# NUGC-3 [19] = assay: Antiproliferative activity against human NUGC3 cells at 1 uM by SRB assay
# MDA-MB-231 [20] = assay: Antiproliferative activity against human MDA-MB-231 cells at 0.3 uM by SRB assay
# ACHN [21] = assay: Antiproliferative activity against human ACHN cells at 10 uM by SRB assay
# MDA-MB-231 [22] = assay: Antiproliferative activity against human MDA-MB-231 cells at 10 uM by SRB assay
# PC-3 [23] = assay: Antiproliferative activity against human PC3 cells at 10 uM by SRB assay
# PC-3 [24] = assay: Antiproliferative activity against human PC3 cells at 0.1 uM by SRB assay
# NCI-H23 [25] = assay: Antiproliferative activity against human NCI-H23 cells at 0.1 uM by SRB assay
# NUGC-3 [26] = assay: Antiproliferative activity against human NUGC3 cells at 0.3 uM by SRB assay
# ACHN [27] = assay: Antiproliferative activity against human ACHN cells at 1 uM by SRB assay
# NCI-H23 [28] = assay: Antiproliferative activity against human NCI-H23 cells by SRB assay
# NCI-H23 [29] = assay: Antiproliferative activity against human NCI-H23 cells at 3 uM by SRB assay
# PC-3 [30] = assay: Antiproliferative activity against human PC3 cells at 1 uM by SRB assay
# PC-3 [31] = assay: Antiproliferative activity against human PC3 cells by SRB assay
# ACHN [32] = assay: Antiproliferative activity against human ACHN cells at 3 uM by SRB assay
# HCT-15 [33] = assay: Antiproliferative activity against human HCT15 cells at 0.3 uM by SRB assay
# NUGC-3 [34] = assay: Antiproliferative activity against human NUGC3 cells at 3 uM by SRB assay
# NUGC-3 [35] = assay: Antiproliferative activity against human NUGC3 cells by SRB assay
# NUGC-3 [36] = assay: Antiproliferative activity against human NUGC3 cells at 10 uM by SRB assay
Compound,"growth, % of control at 0.1 µM (NUGC-3 [1]) [%]","growth, % of control at 3 µM (PC-3 [2]) [%]","growth, % of control at 0.3 µM (NCI-H23 [3]) [%]",GI50 (HCT-15 [4]) [nM],"growth, % of control at 0.1 µM (MDA-MB-231 [5]) [%]","growth, % of control at 0.1 µM (HCT-15 [6]) [%]",GI50 (MDA-MB-231 [7]) [nM],"growth, % of control at 10 µM (NCI-H23 [8]) [%]","growth, % of control at 3 µM (HCT-15 [9]) [%]","growth, % of control at 3 µM (MDA-MB-231 [10]) [%]","growth, % of control at 1 µM (MDA-MB-231 [11]) [%]","growth, % of control at 10 µM (HCT-15 [12]) [%]","growth, % of control at 0.1 µM (ACHN [13]) [%]","growth, % of control at 1 µM (NCI-H23 [14]) [%]","growth, % of control at 0.3 µM (PC-3 [15]) [%]","growth, % of control at 0.3 µM (ACHN [16]) [%]",GI50 (ACHN [17]) [nM],"growth, % of control at 1 µM (HCT-15 [18]) [%]","growth, % of control at 1 µM (NUGC-3 [19]) [%]","growth, % of control at 0.3 µM (MDA-MB-231 [20]) [%]",also measured
CCCCCCCCCCCCCCCCCC(=O)NCC(C)(C)C[N+](C)(C)Cc1ccccc1,96.5,-5.4,80.7,> 10000,95.5,111,2150,-25.8,100,58.9,86,85.2,101,70.6,95.6,94,2230,101,82,91.4,"growth, % of control at 10 µM (ACHN [21]): 0.64%; growth, % of control at 10 µM (MDA-MB-231 [22]): 20.6%; growth, % of control at 10 µM (PC-3 [23]): -38.9%; growth, % of control at 0.1 µM (PC-3 [24]): 101%; growth, % of control at 0.1 µM (NCI-H23 [25]): 93.4%; growth, % of control at 0.3 µM (NUGC-3 [26]): 101%; growth, % of control at 1 µM (ACHN [27]): 87.4%; GI50 (NCI-H23 [28]): 910 nM; growth, % of control at 3 µM (NCI-H23 [29]): 34.9%; growth, % of control at 1 µM (PC-3 [30]): 38.5%; GI50 (PC-3 [31]): 510 nM; growth, % of control at 3 µM (ACHN [32]): 74.1%; growth, % of control at 0.3 µM (HCT-15 [33]): 102%; growth, % of control at 3 µM (NUGC-3 [34]): 40.4%; GI50 (NUGC-3 [35]): 1320 nM; growth, % of control at 10 µM (NUGC-3 [36]): -11%"
CCCCCCCCCCCCCCCC(=O)N(C)CC[N+](C)(C)CC,99.1,-14.5,84.4,1010,102,93.4,660,-9.2,37.8,21.9,59.1,17.8,110,53.8,84,95,580,70.5,38.2,101,"growth, % of control at 10 µM (ACHN [21]): -14.5%; growth, % of control at 10 µM (MDA-MB-231 [22]): -4.7%; growth, % of control at 10 µM (PC-3 [23]): -18.9%; growth, % of control at 0.1 µM (PC-3 [24]): 90%; growth, % of control at 0.1 µM (NCI-H23 [25]): 91.2%; growth, % of control at 0.3 µM (NUGC-3 [26]): 91.8%; growth, % of control at 1 µM (ACHN [27]): 46.3%; GI50 (NCI-H23 [28]): 580 nM; growth, % of control at 3 µM (NCI-H23 [29]): 30.6%; growth, % of control at 1 µM (PC-3 [30]): 10.8%; GI50 (PC-3 [31]): 250 nM; growth, % of control at 3 µM (ACHN [32]): 10.2%; growth, % of control at 0.3 µM (HCT-15 [33]): 85.9%; growth, % of control at 3 µM (NUGC-3 [34]): 9.7%; GI50 (NUGC-3 [35]): 410 nM; growth, % of control at 10 µM (NUGC-3 [36]): -11.1%"
CCCCCCCCCCCCCC(=O)N(C)CCC[N+](C)(C)Cc1ccccc1,84.5,4.38,80,2830,105,89.9,1410,-11.5,78.5,44.2,97.2,25.1,107,70.4,87.4,109,1890,93.6,43.8,106,"growth, % of control at 10 µM (ACHN [21]): 1.92%; growth, % of control at 10 µM (MDA-MB-231 [22]): -2.09%; growth, % of control at 10 µM (PC-3 [23]): -13.1%; growth, % of control at 0.1 µM (PC-3 [24]): 101%; growth, % of control at 0.1 µM (NCI-H23 [25]): 81%; growth, % of control at 0.3 µM (NUGC-3 [26]): 90%; growth, % of control at 1 µM (ACHN [27]): 99.3%; GI50 (NCI-H23 [28]): 660 nM; growth, % of control at 3 µM (NCI-H23 [29]): 14.7%; growth, % of control at 1 µM (PC-3 [30]): 56.5%; GI50 (PC-3 [31]): 530 nM; growth, % of control at 3 µM (ACHN [32]): 72.3%; growth, % of control at 0.3 µM (HCT-15 [33]): 86.7%; growth, % of control at 3 µM (NUGC-3 [34]): 8.51%; GI50 (NUGC-3 [35]): 430 nM; growth, % of control at 10 µM (NUGC-3 [36]): -11.6%"
C=CC[N+](CC)(CC)CCN(C)C(=O)CCCCCCCCCCCCCCC,101,-14.3,54.8,1980,96.1,86.1,440,-15,55.2,21,38.7,32,115,19.3,81.8,87.7,350,78.6,22.9,92.5,"growth, % of control at 10 µM (ACHN [21]): -18.9%; growth, % of control at 10 µM (MDA-MB-231 [22]): -6.4%; growth, % of control at 10 µM (PC-3 [23]): -19.6%; growth, % of control at 0.1 µM (PC-3 [24]): 92.9%; growth, % of control at 0.1 µM (NCI-H23 [25]): 81.2%; growth, % of control at 0.3 µM (NUGC-3 [26]): 76.9%; growth, % of control at 1 µM (ACHN [27]): 30.2%; GI50 (NCI-H23 [28]): 170 nM; growth, % of control at 3 µM (NCI-H23 [29]): 10.7%; growth, % of control at 1 µM (PC-3 [30]): 0.8%; GI50 (PC-3 [31]): 200 nM; growth, % of control at 3 µM (ACHN [32]): 8.1%; growth, % of control at 0.3 µM (HCT-15 [33]): 87.9%; growth, % of control at 3 µM (NUGC-3 [34]): 5.3%; GI50 (NUGC-3 [35]): 270 nM; growth, % of control at 10 µM (NUGC-3 [36]): -6.2%"
